Measurements as given in patent US9770430B2, “Desferrioxamine-metal complexes for the treatment of immune-related disorders” (priority 2009, dated 2017).

What was measured:
[1] = complex of desferrioxamine with the named metal ion; cited from earlier work
[2] = system: high energy diet-induced Type II diabetes; test: Sand rat high energy diet Type II diabetes model, body weight, blood glucose, glucose tolerance, cataract (Example 7); type: in vivo, sand rat (Psammomis obesus)
[3] = system: salicylate hydroxylation to 2,3-DHBA; test: 2,3-DHBA assay in blood of high energy diet fed sand rats; type: in vivo, sand rat (Psammomis obesus); details: 2.5 mg/kg i.p. three times a week
Protocol: To measure 2,3-DHBA the animals were injected i.p. with 100 mg/kg salicylate in saline buffer. As a product of salicylate hydroxylation, the 2,3-DHBA was quantified using HPLC coupled with electrochemical detection (HPLC-ECD), using a Varian 5000 liquid chromatograph (Varian Analytical Instruments, Walnut Creek, Calif., USA) equipped with a Rheodyne 7125 sample injector (20 μl loop; Rheodyne L. P., Rohnert Park, Calif., USA). The column used for separation of salicylate and DHBA was a 250×4 mm LiChrospher 100RP-18, 5 μm (Merck, Darmstadt, Germany). The chromatograms were recorded using a PC-based data acquisition and processing system (EZChrom Elite, San-Ramon, Calif., USA).
Nineteen sand rats were divided into three groups. Group I (n=4) received a standard diet and was used as a control. Groups II (n=7) and III (n=8) received a high energy diet, leading to diabetes development. Group III was treated with 2.5 mg Zn-DFO i.p. per kg body weight three times a week, while Group II was injected with saline according to the same pattern. After the blood glucose and body weight monitoring for 63 days, glucose tolerance test was performed and blood level of 2,3-DHBA and catechols was also measured. As previously done, cataract formation was tested as well. […] The concentration of actin, Trx and TrxR were measured by Western Blotting, and the activity of Msr was analyzed by HPLC as described.

lens proteins = test: Lens proteins of high energy diet fed sand rats (total protein, Trx, TrxR, actin, Msr activity, ferritin); type: in vivo, sand rat (Psammomis obesus)
Protocol: (§1) Ferritin concentration was quantified using an indirect ‘sandwich’ ELISA assay in accordance with a procedure developed previously in our laboratory. Briefly, ELISA 96-well micro plates were pre-coated with goat anti-human L-ferritin antibody. Rabbit anti-human H-ferritin was used as the secondary antibody. Plates were treated with goat anti-rabbit IgG conjugated with β-galactosidase. Chlorophenol Red-β-D-Galactopyranoside was then added and the plates analyzed using a microplate reader with a test (570 nm) and reference (630 nm) filters.
Quantification of the activity of methionine-sulfoxide reductase (Msr) was carried out by incubation the tissue lysates with dabsyl-methionine sulfoxide for 30 min at 37° C., followed by analysis of the reduced product (dabsyl methionine) by HPLC-spectrophotometric detection at 436 nm Assay: total volume 100 μl, including 200 μM Dabsyl-met (O) (as a substrate). The reaction mixture contained also 20 mM DTT, buffer, ˜100 μg protein. The incubation (reaction) was stopped by adding 100 μl of acetonitrile, spinning down, and discarding the protein fraction. The chromatography was run on a 150 mm 3 μm C-18 column, using a gradient (A to B). A=19 g of sodium acetate, pH 6.0 plus 0.5 ml of triethylamine, in one liter of solution; B=acetonitrile (pure). The substrate, dabsyl-Met (0) was prepared as described [Moskovitz, J. et al. (2001) Proc Natl Acad Sci USA, 98 (23): p. 12920-5; Moskowitz et al. (1997) Proc Natl Acad Sci USA, 94 (18): p. 9585-93].
Nineteen sand rats were divided into three groups. Group I (n=4) received a standard diet and was used as a control. Groups II (n=7) and III (n=8) received a high energy diet, leading to diabetes development. Group III was treated with 2.5 mg Zn-DFO i.p. per kg body weight three times a week, while Group II was injected with saline according to the same pattern. After the blood glucose and body weight monitoring for 63 days, glucose tolerance test was performed and blood level of 2,3-DHBA and catechols was also measured. As previously done, cataract formation was tested as well. The retina and lens were collected for biochemical analysis of the concentration of ferritin, thioredoxin-1 (Trx) and thioredoxin reductase-1 (TrxR), total lens protein and methionine sulfoxide reductase (Msr) activity. The concentration of actin, Trx and TrxR were measured by Western Blotting, and the activity of Msr was analyzed by HPLC as described.

ovalbumin-induced asthma = test: Ovalbumin-induced asthma, prophylactic treatment model (lung ferritin); type: in vivo, BALB/c mice; details: asthmatic mice, 1 and 0.3 mg/kg i.p., then 0.3 mg/kg i.n.
Protocol: as §1
• Twelve-week-old Balb/c mice were administered 10 μg (100 μl) ovalbumin (OVA) dissolved with 3 mg Al(OH)3 in 0.9% saline intraperitoneally (i.p.) on days 0, 7 and 14, and 10 μg (50 μl) OVA intranasally (i.n.) on days 20, 23, 25, 27, 29, 31, 34, 36, 37, 41, 43 and 45. […]
To estimate the anti-asthmatic effect of the complexes the following parameters were measured: the concentration of ferritin in the lungs, the presence of inflammatory cells infiltration into the lungs, and the amounts of macrophages, eosinophils, lymphocytes and neutrophils in bronchoalveolar lavages (BALs).

[4] = Western Blotting, diabetes-induced decrease

Which results are given for CC(=O)N(O)CCCCCNC(=O)CCC(=O)N([O-])CCCCCNC(=O)CCC(=O)N([O-])CCCCCN.[Zn+2] [Zn-DFO, Zinc-desferrioxamine]?
relative stability constants for the complexes of desferrioxamine [1]: 10^11; blood glucose value ([2]; day 28, high energy diet, 2.5 mg/kg i.p. three times a week): 200 mg/dL; body weight gain ([2]; high energy diet, 2.5 mg/kg i.p. three times a week, 63 days): gained weight moderately; blood glucose value ([2]; toward the end of experiment, high energy diet, 2.5 mg/kg i.p. three times a week): 110 mg/dL; animals that did not develop cataract ([2]; treated group (Group III)): four; animals with grade 1-2 cataract in both eyes ([2]; treated group (Group III)): Two; animals with severe (grade 3) cataract ([2]; treated group (Group III)): one; glucose tolerance test, integration of total glucose levels ([2]; versus Group I (standard diet)): insignificantly higher value than Group I; 2,3-DHBA blood concentration [3]: maintained almost baseline values; lens Msr activity (lens proteins; HPLC, diabetes-induced decrease): partial, but statistically significant restoration; lens concentration of Trx (lens proteins; [4]): partial, but statistically significant restoration; lens concentration of TrxR (lens proteins; [4]): partial, but statistically significant restoration; lens concentration of actin (lens proteins; [4]): partial, but statistically significant restoration; total lens protein concentration (Bradford assay) (lens proteins; diabetes-induced decrease): partly prevented this decrease; decrease in lens ferritin level (lens proteins; versus diabetic animals): 3.8 fold; lung ferritin level (ovalbumin-induced asthma): 0.6 ± 0.2 µg/mg
